Test results published in US20250064789A1, “KETOAMIDE DERIVATIVES AND PHARMACEUTICAL USES THEREOF” (priority 2022, published 2025).

Test system: not listed separately
Assay: in vivo
Settings: male, Sprague-Dawley, rat, iv, 1 mg/kg

SMILES	MRT inf [h]	Tmax [min]	half-life [h]
C[C@@H](NC(=O)C1CCC(F)(F)CC1)C(=O)N[C@H](Cc1ccccc1)C(=O)C(=O)NCc1nccs1 [Compound 354]	0.93 ± 0.18	4.8	2.42 ± 2.24
C[C@@H](NC(=O)CC1CC(F)(F)C1)C(=O)N[C@H](Cc1ccccc1)C(=O)C(=O)NCc1nccs1 [Compound 378]	3.19 ± 0.31	4.8	
C[C@@H](NC(=O)C1CCC(F)(F)C1)C(=O)N[C@H](Cc1ccccc1)C(=O)C(=O)NCc1nccs1 (stereo partly shown) [Compound 379]	1.26 ± 0.42	4.8	

Same assay, conditions: male, Sprague-Dawley, rat, po, 10 mg/kg

SMILES	MRT inf [h]	bioavailability [%]
C[C@@H](NC(=O)C1CCC(F)(F)CC1)C(=O)N[C@H](Cc1ccccc1)C(=O)C(=O)NCc1nccs1 [Compound 354]	4.89 ± 1.14	
C[C@@H](NC(=O)CC1CC(F)(F)C1)C(=O)N[C@H](Cc1ccccc1)C(=O)C(=O)NCc1nccs1 [Compound 378]	6.57 ± 0.38	7.95 ± 2.8
C[C@@H](NC(=O)C1CCC(F)(F)C1)C(=O)N[C@H](Cc1ccccc1)C(=O)C(=O)NCc1nccs1 (stereo partly shown) [Compound 379]	5.9 ± 0.79	

Test system: not listed separately
Assay: In vivo pharmacokinetic properties in rats
Settings: SD rats, i.v. 1 mg/kg

SMILES	AUCINF—obs [ng·h/mL]	AUClast [ng·h/mL]	Cmax [ng/mL]	CL [mL/min/kg]	T1/2 [h]
C[C@@H](NC(=O)C1CCC(F)(F)CC1)C(=O)N[C@H](Cc1ccccc1)C(=O)C(=O)NCc1nccs1 [Compound 354]	1020.76 ± 261.50	1011.17 ± 258.49	1105.29 ± 69.99		
C[C@@H](NC(=O)CC1CC(F)(F)C1)C(=O)N[C@H](Cc1ccccc1)C(=O)C(=O)NCc1nccs1 [Compound 378]	2254.80 ± 672.40	2196.61 ± 634.20	1568.34 ± 201.27	7.95 ± 2.80	5.47 ± 0.77
C[C@@H](NC(=O)C1CCC(F)(F)C1)C(=O)N[C@H](Cc1ccccc1)C(=O)C(=O)NCc1nccs1 (stereo partly shown) [Compound 379]	1329.00 ± 555.62	1292.28 ± 530.92	1317.59 ± 168.03	14.52 ± 7.25	1.90 ± 0.27

Same assay, conditions: SD rats, p.o. 10 mg/kg

SMILES	AUCINF—obs [ng·h/mL]	AUClast [ng·h/mL]	Cmax [ng/mL]	F % [%]	T1/2 [h]	Tmax [h]
C[C@@H](NC(=O)C1CCC(F)(F)CC1)C(=O)N[C@H](Cc1ccccc1)C(=O)C(=O)NCc1nccs1 [Compound 354]	2844.61 ± 326.65	2567.31 ± 678.74	306.27 ± 32.12	25.39 ± 6.71	3.01 ± 0.91	2.67 ± 1.15
C[C@@H](NC(=O)CC1CC(F)(F)C1)C(=O)N[C@H](Cc1ccccc1)C(=O)C(=O)NCc1nccs1 [Compound 378]	8696.48 ± 1124.53	8180.11 ± 795.05	734.80 ± 101.62		5.84 ± 1.30	1.33 ± 0.58
C[C@@H](NC(=O)C1CCC(F)(F)C1)C(=O)N[C@H](Cc1ccccc1)C(=O)C(=O)NCc1nccs1 (stereo partly shown) [Compound 379]	6903.48 ± 2619.87	6721.57 ± 2461.95	634.54 ± 161.39	52.01 ± 19.05	4.15 ± 1.48	1.67 ± 0.58

Test system: HUVEC cells (human umbilical vein endothelial cells)
Assay: Cytotoxic assay against HUVEC cells (MTT, 72 h)
Type: cell-based
Settings: not given
Protocol: (§1) BEAS-2B cells (normal human bronchial epithelial cells) and HUVEC cells (human umbilical vein endothelial cells) were used to evaluate the cytotoxicity of compounds against human-derived cells. The detailed experimental procedures: BEAS-2B cells or HUVEC cells were seeded into a 96-well plate at a cell density of 2×10^4 cells/well, that is, 100 µL/well, and then incubated overnight at 37° C. in a 5% CO2 incubator. The next day, 100 μL of drug-containing medium was added to each well. The compound was diluted in a 2-fold serial dilution with a top concentration of […], for a total of 6 gradients. Three repeated wells were set for each concentration, and negative controls and blank controls without drugs were included for each experiment. […] All experimental data were analyzed using GraphPad Prism software.

SMILES	CC50 [µM]
C[C@@H](NC(=O)C1CCC(F)(F)CC1)C(=O)N[C@H](Cc1ccccc1)C(=O)C(=O)NCc1nccs1 [Compound 354]	> 500
C[C@@H](NC(=O)CC1CC(F)(F)C1)C(=O)N[C@H](Cc1ccccc1)C(=O)C(=O)NCc1nccs1 [Compound 378]	> 500
C[C@@H](NC(=O)C1CCC(F)(F)C1)C(=O)N[C@H](Cc1ccccc1)C(=O)C(=O)NCc1nccs1 (stereo partly shown) [Compound 379]	> 500

Target: human caspase 2 (Homo sapiens (Human), UniProt P42575)
Sequence (P42575 170-325): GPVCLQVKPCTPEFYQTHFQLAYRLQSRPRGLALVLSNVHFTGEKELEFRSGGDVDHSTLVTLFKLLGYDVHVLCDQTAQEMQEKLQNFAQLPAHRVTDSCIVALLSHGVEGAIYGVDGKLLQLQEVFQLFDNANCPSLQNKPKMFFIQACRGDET
Sequence (P42575 348-452): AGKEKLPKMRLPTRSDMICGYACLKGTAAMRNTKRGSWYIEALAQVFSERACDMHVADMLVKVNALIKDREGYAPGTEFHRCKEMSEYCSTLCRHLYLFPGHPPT
Assay: Human protease biochemical activity assay: Caspase-2 inhibitor screening kit
Settings: read-out: Caspase-2 IC50
Protocol: (§2) The biochemical activity of compounds against human proteases was determined using Cathepsin K inhibitor screening kit (K150-100), Cathepsin B inhibitor screening kit (K147-100), Thrombin activity testing kit (K373-100), Caspase-2 inhibitor screening kit (K152-100), and Cathepsin D inhibitor screening kit (K148-100) according to the instructions of the kits (Biovision, USA). All experiments were carried out in triplicate. All experimental data were analyzed using GraphPad Prism software.

SMILES	IC50 [µM]
C[C@@H](NC(=O)CC1CC(F)(F)C1)C(=O)N[C@H](Cc1ccccc1)C(=O)C(=O)NCc1nccs1 [Compound 378]	> 100
C[C@@H](NC(=O)C1CCC(F)(F)C1)C(=O)N[C@H](Cc1ccccc1)C(=O)C(=O)NCc1nccs1 (stereo partly shown) [Compound 379]	> 100

Test system: not listed separately
Assay: Metabolic stability using human liver microsomes
Type: in vitro ADME
Settings: NADPH, 37° C.

SMILES	Human liver microsomes T1/2 [h]
C[C@@H](NC(=O)C1CCC(F)(F)CC1)C(=O)N[C@H](Cc1ccccc1)C(=O)C(=O)NCc1nccs1 [Compound 354]	0.5935
C[C@@H](NC(=O)C1CCC(F)(F)C1)C(=O)N[C@H](Cc1ccccc1)C(=O)C(=O)NCc1nccs1 (stereo partly shown) [Compound 379]	0.7035

Target: human cathepsin B (Homo sapiens (Human), UniProt P07858)
Assay: Human protease biochemical activity assay: Cathepsin B inhibitor screening kit
Settings: not given
Protocol: as §2

SMILES	IC50 [µM]
C[C@@H](NC(=O)CC1CC(F)(F)C1)C(=O)N[C@H](Cc1ccccc1)C(=O)C(=O)NCc1nccs1 [Compound 378]	> 100
C[C@@H](NC(=O)C1CCC(F)(F)C1)C(=O)N[C@H](Cc1ccccc1)C(=O)C(=O)NCc1nccs1 (stereo partly shown) [Compound 379]	> 100

Target: human cathepsin D (Homo sapiens (Human), UniProt P07339)
Sequence (P07339 65-412): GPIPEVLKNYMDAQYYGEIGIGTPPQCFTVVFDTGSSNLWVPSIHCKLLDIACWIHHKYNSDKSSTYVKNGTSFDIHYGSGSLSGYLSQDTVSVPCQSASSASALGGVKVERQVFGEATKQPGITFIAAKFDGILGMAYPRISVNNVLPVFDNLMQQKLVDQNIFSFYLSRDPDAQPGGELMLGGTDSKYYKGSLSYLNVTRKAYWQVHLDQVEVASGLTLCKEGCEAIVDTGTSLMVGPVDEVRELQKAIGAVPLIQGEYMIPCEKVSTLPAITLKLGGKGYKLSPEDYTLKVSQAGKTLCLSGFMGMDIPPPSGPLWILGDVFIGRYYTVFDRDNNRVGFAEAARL
Assay: Human protease biochemical activity assay: Cathepsin D inhibitor screening kit
Settings: not given
Protocol: as §2

SMILES	IC50 [µM]
C[C@@H](NC(=O)CC1CC(F)(F)C1)C(=O)N[C@H](Cc1ccccc1)C(=O)C(=O)NCc1nccs1 [Compound 378]	> 100
C[C@@H](NC(=O)C1CCC(F)(F)C1)C(=O)N[C@H](Cc1ccccc1)C(=O)C(=O)NCc1nccs1 (stereo partly shown) [Compound 379]	> 100

Test system: not given
Assay: not given
Settings: male, Sprague-Dawley, rat, in vivo, iv, 1 mg/kg

SMILES	Vssobs [L/kg]
C[C@@H](NC(=O)C1CCC(F)(F)CC1)C(=O)N[C@H](Cc1ccccc1)C(=O)C(=O)NCc1nccs1 [Compound 354]	1.31 ± 0.54
C[C@@H](NC(=O)CC1CC(F)(F)C1)C(=O)N[C@H](Cc1ccccc1)C(=O)C(=O)NCc1nccs1 [Compound 378]	3.65 ± 0.74
C[C@@H](NC(=O)C1CCC(F)(F)C1)C(=O)N[C@H](Cc1ccccc1)C(=O)C(=O)NCc1nccs1 (stereo partly shown) [Compound 379]	2.49 ± 1.61

Target: recombinant SARS-CoV-2 M^pro (Severe acute respiratory syndrome coronavirus 2 (2019-nCoV) (SARS-CoV-2), UniProt P0DTD1)
Assay: Inhibition of SARS-CoV-2 M^pro enzyme activity (fluorescent substrate assay)
Type: biochemical
Settings: inhibition of SARS-CoV-2 M^pro enzyme activity; values in nM; read-out: IC50

SMILES	IC50 [nM]
C[C@@H](NC(=O)CC1CC(F)(F)C1)C(=O)N[C@H](Cc1ccccc1)C(=O)C(=O)NCc1nccs1 [Compound 378]	21.2 ± 0.3
C[C@@H](NC(=O)C1CCC(F)(F)C1)C(=O)N[C@H](Cc1ccccc1)C(=O)C(=O)NCc1nccs1 (stereo partly shown) [Compound 379]	22.5 ± 0.7

Target: human thrombin (Homo sapiens (Human), UniProt P00734)
Assay: Human protease biochemical activity assay: Thrombin activity testing kit
Settings: read-out: Thrombin IC50
Protocol: as §2

SMILES	IC50 [µM]
C[C@@H](NC(=O)CC1CC(F)(F)C1)C(=O)N[C@H](Cc1ccccc1)C(=O)C(=O)NCc1nccs1 [Compound 378]	> 100
C[C@@H](NC(=O)C1CCC(F)(F)C1)C(=O)N[C@H](Cc1ccccc1)C(=O)C(=O)NCc1nccs1 (stereo partly shown) [Compound 379]	> 100

Target: human cathepsin K (Homo sapiens (Human), UniProt P43235)
Sequence (P43235 115-329): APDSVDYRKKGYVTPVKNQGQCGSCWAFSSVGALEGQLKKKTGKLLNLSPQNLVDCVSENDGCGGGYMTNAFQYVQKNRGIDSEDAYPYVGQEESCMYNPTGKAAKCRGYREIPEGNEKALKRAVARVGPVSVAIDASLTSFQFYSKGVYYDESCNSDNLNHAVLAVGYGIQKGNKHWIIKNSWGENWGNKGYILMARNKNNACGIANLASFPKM
Assay: Human protease biochemical activity assay: Cathepsin K inhibitor screening kit
Settings: read-out: Cathepsin K IC50
Protocol: as §2

SMILES	IC50 [µM]
C[C@@H](NC(=O)CC1CC(F)(F)C1)C(=O)N[C@H](Cc1ccccc1)C(=O)C(=O)NCc1nccs1 [Compound 378]	> 100
C[C@@H](NC(=O)C1CCC(F)(F)C1)C(=O)N[C@H](Cc1ccccc1)C(=O)C(=O)NCc1nccs1 (stereo partly shown) [Compound 379]	> 100

Test system: BEAS-2B cells (normal human bronchial epithelial cells)
Assay: Cytotoxic assay against human BEAS-2B cells (MTT, 72 h)
Type: cell-based
Settings: not given
Protocol: as §1

SMILES	CC50 [µM]
C[C@@H](NC(=O)C1CCC(F)(F)CC1)C(=O)N[C@H](Cc1ccccc1)C(=O)C(=O)NCc1nccs1 [Compound 354]	> 500
C[C@@H](NC(=O)CC1CC(F)(F)C1)C(=O)N[C@H](Cc1ccccc1)C(=O)C(=O)NCc1nccs1 [Compound 378]	> 500
C[C@@H](NC(=O)C1CCC(F)(F)C1)C(=O)N[C@H](Cc1ccccc1)C(=O)C(=O)NCc1nccs1 (stereo partly shown) [Compound 379]	> 500

Test system: Vero E6 cells
Assay: Cytotoxic assay against Vero E6 cells (MTT, 72 h)
Type: cell-based
Settings: not given
Protocol: The cytotoxicity assessment of compounds was performed against Vero E6 cells. The specific experimental procedures: Vero E6 cells were seeded into a 96-well plate at a cell density of 2×10^4 cells/well, with 100 μL/well, and then incubated overnight at 37° C. in a 5% CO2 incubator. The next day, 100 μL of drug-containing medium was added to each well. The compound was diluted in a 2-fold serial dilution with a top concentration of […], for a total of 6 gradients. Three repeated wells were set for each concentration, and negative controls and blank controls without drugs were included for each experiment. […] All experimental data were analyzed using GraphPad Prism software.

SMILES	CC50 [µM]
C[C@@H](NC(=O)C1CCC(F)(F)CC1)C(=O)N[C@H](Cc1ccccc1)C(=O)C(=O)NCc1nccs1 [Compound 354]	> 500
C[C@@H](NC(=O)CC1CC(F)(F)C1)C(=O)N[C@H](Cc1ccccc1)C(=O)C(=O)NCc1nccs1 [Compound 378]	> 500
C[C@@H](NC(=O)C1CCC(F)(F)C1)C(=O)N[C@H](Cc1ccccc1)C(=O)C(=O)NCc1nccs1 (stereo partly shown) [Compound 379]	> 500
